Columns and labels:
[1] = system: patients with narcolepsy type 1 or type 2; assay: ESS, 12-week phase 3 study in narcolepsy; format: in vivo, human
Method: The ESS is a subjective sleepiness test that is well known in the art and routinely used to measure the sleepiness level of a subject. The scale is intended to measure daytime sleepiness through the use of a short questionnaire that asks the subject to rate his or her probability of falling asleep on a scale of increasing probability from 0 to 3 for eight different situations that most people engage in during their daily lives. The scores for the eight questions are added together to obtain a single number that estimates the subject's average sleep propensity (ASP). A number in the 0-10 range is considered to be normal while 11-12 indicates mild excessive sleepiness, 13-15 indicates moderate excessive sleepiness, and 16 or higher indicates severe excessive sleepiness. Narcolepsy patients have an average score of about 17. Obstructive sleep apnea (OSA) patients with excessive sleepiness have an average score of about 15.
The study was a 12-week, double-blind, randomized, placebo-controlled, parallel-group study. […]
Efficacy analyses were based on the modified intent-to-treat population (mITT), defined as all patients who were randomized, received at least 1 dose of study drug, and had baseline and at least 1 post-baseline evaluation of both MWT and ESS. MWT and ESS were analyzed using a mixed-effect repeated measures (MMRM) model. PGI-C was analyzed using a chi-square test. […]

[2] = system: adult patients with OSA and ES; assay: EQ-5D-5L, 12-week parallel study in OSA; format: in vivo, human; details: week 12
Method: This was a 12-week, double-blind, placebo-controlled, parallel-design study. Patients were randomized (1:1:2:2:2) to APC 37.5 mg, 75 mg, 150 mg, or 300 mg, or placebo for 12 weeks, and were stratified by adherence or nonadherence with primary OSA therapy.
The SF-36 v2 consists of 2 summary scales (Physical Component Summary and Mental Component Summary) and 8 specific health status domains (Physical Function, Role Physical, Bodily Pain, General Health, Vitality, Social Functioning, Role Emotional, Mental Health) (Ware Jr et al., User's Manual for the SF-36v2™ Health Survey (2nd ed). QualityMetric Incorporated (Lincoln, RI); 2007). […]
Efficacy analyses were based on the modified intent-to-treat (mITT) population; there was no multiplicity adjustment for the SF-36 v2 or EQ-5D-5L. SF-36 v2 scores were scaled from 0 to 100 (higher scores on all scales represent better health), transformed to norm-based scores using US general-population data from SF-36 Manuals (Ware Jr et al., User's Manual for the SF-36v2™ Health Survey (2nd ed.). QualityMetric Incorporated (Lincoln, RI); 2007), and were analyzed using a mixed-effect model with repeated measures (MMRM); and baseline value of the efficacy endpoint was used to determine differences in changes from baseline. EQ-5D-5L VAS and index-score data were analyzed using an MMRM model. […]

NC(=O)OC[C@H](N)Cc1ccccc1 [JZP-110, (R)-2-amino-3-phenylpropyl carbamate]
ESS scores, effect at week 1 ([1]; 150 and 300 mg, as early as week 1): Statistically significant effects
ESS scores relative to placebo ([1]; all doses, week 12, mITT): significantly decreased ESS scores relative to placebo
EQ-5D-5L index value, effect [2]: no significant effects
EQ-5D VAS, effect vs placebo ([2]; appeared dose dependent): not significantly different from placebo
